Assay results from patent US12077503B2, “Substituted cyclic amides and their use as herbicides” (FMC CORPORATION, priority 2015, dated 2024).

Key:
Format in all cases: in vivo
[1] = test system: wheat (winter wheat, Triticum aestivum); assay: Test C preemergence; details: for Plant response rating (scale of 0 to 100), Wheat: 31 g ai/ha, 0 is no effect, 100 is complete control; for Plant response rating, Wheat: scale 0 to 100, 0 no effect, 100 complete control
How it was run: (§1)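 Seeds in loam-sand soil treated preemergence, or plants in peat-based medium sprayed postemergence at 2–18 cm (1- to 4-leaf stage), with compound in a non-phytotoxic solvent mixture containing surfactant. Greenhouse-held 13–15 d, then visually rated against controls on a 0–100 scale (0 = no effect, 100 = complete control); dash = not tested.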

[2] = test system: ryegrass, Italian (Italian ryegrass, Lolium multiflorum); assay: Test C preemergence; details: for Plant response rating (scale of 0 to 100), Ryegrass, Italian: 31 g ai/ha, 0 is no effect, 100 is complete control; for Plant response rating, Ryegrass, Italian: scale 0 to 100, 0 no effect, 100 complete control
How it was run: as §1

[3] = test system: barnyardgrass (Echinochloa crus-galli); assay: Test C preemergence; details: for Plant response rating (scale of 0 to 100), Barnyardgrass: 31 g ai/ha, 0 is no effect, 100 is complete control; for Plant response rating, Barnyardgrass: scale 0 to 100, 0 no effect, 100 complete control
How it was run: as §1

[4] = test system: crabgrass, large (large crabgrass, Digitaria sanguinalis); assay: Test C preemergence; details: for Plant response rating (scale of 0 to 100), Crabgrass, Large: 31 g ai/ha, 0 is no effect, 100 is complete control; for Plant response rating, Crabgrass, Large: scale 0 to 100, 0 no effect, 100 complete control
How it was run: as §1

[5] = test system: pigweed (Amaranthus retroflexus); assay: Test C preemergence; details: for Plant response rating (scale of 0 to 100), Pigweed: 31 g ai/ha, 0 is no effect, 100 is complete control; for Plant response rating, Pigweed: scale 0 to 100, 0 no effect, 100 complete control
How it was run: as §1

[6] = test system: foxtail, giant (giant foxtail, Setaria faberii); assay: Test C preemergence; details: for Plant response rating (scale of 0 to 100), Foxtail, Giant: 31 g ai/ha, 0 is no effect, 100 is complete control; for Plant response rating, Foxtail, Giant: scale 0 to 100, 0 no effect, 100 complete control
How it was run: as §1

[7] = test system: nutsedge, yellow (yellow nutsedge, Cyperus esculentus); assay: Test C preemergence; details: for Plant response rating (scale of 0 to 100), Nutsedge, Yellow: 31 g ai/ha, 0 is no effect, 100 is complete control; for Plant response rating, Nutsedge, Yellow: scale 0 to 100, 0 no effect, 100 complete control
How it was run: as §1

[8] = test system: ragweed (common ragweed, Ambrosia elatior); assay: Test C preemergence; details: for Plant response rating (scale of 0 to 100), Ragweed: 31 g ai/ha, 0 is no effect, 100 is complete control; for Plant response rating, Ragweed: scale 0 to 100, 0 no effect, 100 complete control
How it was run: as §1

soybean (Glycine max) = assay: Test C preemergence; details: for Plant response rating (scale of 0 to 100), Soybean: 31 g ai/ha, 0 is no effect, 100 is complete control; for Plant response rating, Soybean: scale 0 to 100, 0 no effect, 100 complete control
How it was run: as §1

[9] = test system: barnyardgrass (Echinochloa crus-galli); assay: Test C flooded paddy test; details: Flood; for Plant response rating (scale of 0 to 100), Barnyardgrass: 0 is no effect, 100 is complete control
How it was run: (§2)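 Plants grown to the 2-leaf stage in pots flooded to 3 cm above soil; compounds applied directly into the paddy water, depth held throughout. After 13 to 15 d in greenhouse, injury visually rated against untreated controls on a 0–100 scale (0 no effect, 100 complete control).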

[10] = test system: sedge, umbrella (small-flower umbrella sedge, Cyperus difformis); assay: Test C flooded paddy test; details: Flood; for Plant response rating (scale of 0 to 100), Sedge, Umbrella: 0 is no effect, 100 is complete control
How it was run: as §2

[11] = test system: ducksalad (Heteranthera limosa); assay: Test C flooded paddy test; details: Flood; for Plant response rating (scale of 0 to 100), Ducksalad: 0 is no effect, 100 is complete control
How it was run: as §2

[12] = test system: waterplantain (common waterplantain, Alisma plantago-aquatica); assay: Test F flooded paddy test; details: Flood
Description: (§3) Plant species in the flooded paddy test consisted of one stand of 9 or 10 water seeded rice seedlings (Rice, W. S. Jap, Oryza sativa cv. ‘Japonica—M202’ or Rice, W. S. Ind, ‘Indica’), and two stands of 3 or 4 transplanted rice seedlings (Oryza sativa cv. ‘Japonica—M202’), Monochoria (Monochoria vaginalis), sedge, umbrella (small-flower umbrella sedge, Cyperus difformis), hardstem bulrush (Scirpus juncoides), redstem (purple redstem, Ammannia coccinea), rice flatsedge (Cyperus iria), bearded sprangletop (Leptochloa fascicularis), barnyardgrass (Echinochloa crus-galli), waterplantain (common waterplantain, Alisma plantago-aquatica), and late watergrass (Echinochloa oryzicola) grown to the 2 to 2.5 leaf stage for testing. Potted plants were grown in a greenhouse with day/night temperature settings of 30/27° C., and supplemental balanced lighting was provided to maintain a 16-hour photoperiod. At time of treatment, test pots were flooded to 3 cm above the soil surface, treated by application of test compounds directly to the paddy water, and then maintained at that water depth for the duration of the test. Effects of treatments on rice and weeds were visually evaluated by comparison to untreated controls after 21 d. Plant response ratings, summarized in Table F, are based on a scale of 0 to 100 where 0 is no effect and 100 is complete control. A dash (-) response means no test result.

[13] = test system: redstem (purple redstem, Ammannia coccinea); assay: Test F flooded paddy test; details: Flood
Description: as §3

[14] = 31 g ai/ha, scale 0 to 100 (0 no effect, 100 complete control), 13 to 15 d

CN1C[C@H](c2ccc(C(F)(F)F)cc2)[C@@H](C(=O)Nc2ccccc2F)C1=O [Compound 622, (3S,4S)—N-(2-fluorophenyl)-1-methyl-2-oxo-4-[4-(trifluoromethyl)phenyl]-3-pyrrolidinecarboxamide]
Plant response rating (scale of 0 to 100), Wheat [1]: 30 | Plant response rating, Wheat ([1]; 62 g ai/ha): 40 | Plant response rating, Wheat ([1]; 125 g ai/ha): 70 | Plant response rating, Wheat ([1]; 250 g ai/ha): 80 | Plant response rating (scale of 0 to 100), Ryegrass, Italian [2]: 25 | Plant response rating, Ryegrass, Italian ([2]; 62 g ai/ha): 50 | Plant response rating, Ryegrass, Italian ([2]; 125 g ai/ha): 35 | Plant response rating, Ryegrass, Italian ([2]; 250 g ai/ha): 70 | Plant response rating (scale of 0 to 100), Barnyardgrass [3]: 90 | Plant response rating, Barnyardgrass ([3]; 62 g ai/ha): 95 | Plant response rating, Barnyardgrass ([3]; 125 g ai/ha): 90 | Plant response rating, Barnyardgrass ([3]; 250 g ai/ha): 95 | Plant response rating (scale of 0 to 100), Crabgrass, Large [4]: 100 | Plant response rating, Crabgrass, Large ([4]; 62 g ai/ha): 95 | Plant response rating, Crabgrass, Large ([4]; 125 g ai/ha): 100 | Plant response rating, Crabgrass, Large ([4]; 250 g ai/ha): 100 | Plant response rating (scale of 0 to 100), Pigweed [5]: 75 | Plant response rating, Pigweed ([5]; 62 g ai/ha): 85 | Plant response rating, Pigweed ([5]; 125 g ai/ha): 85 | Plant response rating, Pigweed ([5]; 250 g ai/ha): 90 | Plant response rating (scale of 0 to 100), Foxtail, Giant [6]: 90 | Plant response rating, Foxtail, Giant ([6]; 62 g ai/ha): 90 | Plant response rating, Foxtail, Giant ([6]; 125 g ai/ha): 95 | Plant response rating, Foxtail, Giant ([6]; 250 g ai/ha): 95 | Plant response rating (scale of 0 to 100), Nutsedge, Yellow [7]: 0 | Plant response rating, Nutsedge, Yellow ([7]; 62 g ai/ha): 0 | Plant response rating, Nutsedge, Yellow ([7]; 125 g ai/ha): 0 | Plant response rating, Nutsedge, Yellow ([7]; 250 g ai/ha): 0 | Plant response rating (scale of 0 to 100), Ragweed [8]: 45 | Plant response rating, Ragweed ([8]; 62 g ai/ha): 70 | Plant response rating, Ragweed ([8]; 125 g ai/ha): 85 | Plant response rating, Ragweed ([8]; 250 g ai/ha): 85 | Plant response rating (scale of 0 to 100), Soybean (soybean (Glycine max)): 0 | Plant response rating, Soybean (soybean (Glycine max); 62 g ai/ha): 20 | Plant response rating, Soybean (soybean (Glycine max); 125 g ai/ha): 85 | Plant response rating, Soybean (soybean (Glycine max); 250 g ai/ha): 45

CN1C[C@H](c2ccc(F)c(F)c2)[C@@H](C(=O)Nc2cccc(F)c2F)C1=O [Compound 639, (3S,4S)—N-(2,3-difluorophenyl)-4-(3,4-difluorophenyl)-1-methyl-2-oxo-3-pyrrolidinecarboxamide]
Plant response rating, Barnyardgrass [9, 14]: 0 | Plant response rating (scale of 0 to 100), Barnyardgrass ([9]; 62 g ai/ha): 50 | Plant response rating (scale of 0 to 100), Barnyardgrass ([9]; 125 g ai/ha): 70 | Plant response rating (scale of 0 to 100), Barnyardgrass ([9]; 250 g ai/ha): 75 | Plant response rating, Sedge, Umbrella [10, 14]: 0 | Plant response rating (scale of 0 to 100), Sedge, Umbrella ([10]; 62 g ai/ha): 0 | Plant response rating (scale of 0 to 100), Sedge, Umbrella ([10]; 125 g ai/ha): 0 | Plant response rating (scale of 0 to 100), Sedge, Umbrella ([10]; 250 g ai/ha): 0 | Plant response rating, Ducksalad [11, 14]: 50 | Plant response rating (scale of 0 to 100), Ducksalad ([11]; 62 g ai/ha): 75 | Plant response rating (scale of 0 to 100), Ducksalad ([11]; 125 g ai/ha): 90 | Plant response rating (scale of 0 to 100), Ducksalad ([11]; 250 g ai/ha): 100 | Plant response rating: Waterplantain ([12]; 32 g ai/ha): 80 | Plant response rating: Waterplantain ([12]; 64 g ai/ha): 80 | Plant response rating: Waterplantain ([12]; 125 g ai/ha): 98 | Plant response rating: Waterplantain ([12]; 250 g ai/ha): 100 | Plant response rating: Redstem ([13]; 32 g ai/ha): 0 | Plant response rating: Redstem ([13]; 64 g ai/ha): 0 | Plant response rating: Redstem ([13]; 125 g ai/ha): 0 | Plant response rating: Redstem ([13]; 250 g ai/ha): 30 | Plant response rating (scale of 0 to 100), Wheat [1]: 0 | Plant response rating, Wheat ([1]; 62 g ai/ha): 65 | Plant response rating, Wheat ([1]; 125 g ai/ha): 80 | Plant response rating, Wheat ([1]; 250 g ai/ha): 85 | Plant response rating (scale of 0 to 100), Ryegrass, Italian [2]: 25 | Plant response rating, Ryegrass, Italian ([2]; 62 g ai/ha): 60 | Plant response rating, Ryegrass, Italian ([2]; 125 g ai/ha): 60 | Plant response rating, Ryegrass, Italian ([2]; 250 g ai/ha): 70 | Plant response rating (scale of 0 to 100), Barnyardgrass [3]: 90 | Plant response rating, Barnyardgrass ([3]; 62 g ai/ha): 95 | Plant response rating, Barnyardgrass ([3]; 125 g ai/ha): 95 | Plant response rating, Barnyardgrass ([3]; 250 g ai/ha): 100 | Plant response rating (scale of 0 to 100), Crabgrass, Large [4]: 98 | Plant response rating, Crabgrass, Large ([4]; 62 g ai/ha): 98 | Plant response rating, Crabgrass, Large ([4]; 125 g ai/ha): 100 | Plant response rating, Crabgrass, Large ([4]; 250 g ai/ha): 100 | Plant response rating (scale of 0 to 100), Pigweed [5]: 40 | Plant response rating, Pigweed ([5]; 62 g ai/ha): 55 | Plant response rating, Pigweed ([5]; 125 g ai/ha): 65 | Plant response rating, Pigweed ([5]; 250 g ai/ha): 75 | Plant response rating (scale of 0 to 100), Foxtail, Giant [6]: 90 | Plant response rating, Foxtail, Giant ([6]; 62 g ai/ha): 90 | Plant response rating, Foxtail, Giant ([6]; 125 g ai/ha): 95 | Plant response rating, Foxtail, Giant ([6]; 250 g ai/ha): 100 | Plant response rating (scale of 0 to 100), Nutsedge, Yellow [7]: 0 | Plant response rating, Nutsedge, Yellow ([7]; 62 g ai/ha): 0 | Plant response rating, Nutsedge, Yellow ([7]; 125 g ai/ha): 0 | Plant response rating, Nutsedge, Yellow ([7]; 250 g ai/ha): 20 | Plant response rating (scale of 0 to 100), Ragweed [8]: 5 | Plant response rating, Ragweed ([8]; 62 g ai/ha): 60 | Plant response rating, Ragweed ([8]; 125 g ai/ha): 75 | Plant response rating, Ragweed ([8]; 250 g ai/ha): 80 | Plant response rating (scale of 0 to 100), Soybean (soybean (Glycine max)): 0 | Plant response rating, Soybean (soybean (Glycine max); 62 g ai/ha): 0 | Plant response rating, Soybean (soybean (Glycine max); 125 g ai/ha): 10 | Plant response rating, Soybean (soybean (Glycine max); 250 g ai/ha): 20
